Reference: paper PMC3073400 (Nature biotechnology, 2010)

Assay type: in vivo
Settings: rat brain, 500 μM dopamine alone, no contrast agent, data not shown

NCCc1ccc(O)c(O)c1 [dopamine]
MRI signal changes on infusion alone: no noticeable signal changes
